Assay results published in PubChem BioAssay AID220 (DTP/NCI, 2004).
Where “and” joins values, the source holds several entries; their conditions need not be identical. Identical values can stand only once. Records with an inconclusive call do not appear.

System: CD8F1 mice, subcutaneous mammary adenocarcinoma, T/C%
Assay: NCI In Vivo Anticancer Drug Screen. Data for tumor model Mammary Adenocarcinoma CD8F1 (subcutaneous) in CD8F1
Conditions: higher = larger tumour
Procedure, shortened: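 Ratio of treated to vehicle-control outcome, based on either survival or tumor size, in mice bearing transplantable tumors given the test compound.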

[1] = endpoint: median tumor weight (est.), dose: 6.25 mg/kg/injection, schedule: Q07DX005 (ip), vehicle: saline
[2] = endpoint: median tumor weight (est.), dose: 12.5 mg/kg/injection, schedule: Q07DX005 (ip), vehicle: saline
[3] = endpoint: median tumor weight (est.), dose: 25.0 mg/kg/injection, schedule: Q07DX005 (ip), vehicle: saline
[4] = endpoint: median tumor weight (est.), dose: 12.5 mg/kg/injection, schedule: Q07DX005 (ip), vehicle: Klucel (hydroxypropylcellulose) (HPC)
[5] = endpoint: median tumor weight (est.), dose: 25.0 mg/kg/injection, schedule: Q07DX005 (ip), vehicle: Klucel (hydroxypropylcellulose) (HPC)
[6] = endpoint: median tumor weight (est.), dose: 50.0 mg/kg/injection, schedule: Q07DX005 (ip), vehicle: Klucel (hydroxypropylcellulose) (HPC)
[7] = endpoint: median tumor weight (est.), dose: 100.0 mg/kg/injection, schedule: Q07DX005 (ip), vehicle: Klucel (hydroxypropylcellulose) (HPC)
[8] = endpoint: median tumor weight (est.), dose: 200.0 mg/kg/injection, schedule: Q07DX005 (ip), vehicle: Klucel (hydroxypropylcellulose) (HPC)
[9] = endpoint: median tumor weight (est.), dose: 2.5 mg/kg/injection, schedule: Q07DX005 (ip), vehicle: Klucel (hydroxypropylcellulose) (HPC)
[10] = endpoint: median tumor weight (est.), dose: 5.0 mg/kg/injection, schedule: Q07DX005 (ip), vehicle: Klucel (hydroxypropylcellulose) (HPC)
[11] = endpoint: median tumor weight (est.), dose: 10.0 mg/kg/injection, schedule: Q07DX005 (ip), vehicle: Klucel (hydroxypropylcellulose) (HPC)
[12] = endpoint: median tumor weight (est.), dose: 20.0 mg/kg/injection, schedule: Q07DX005 (ip), vehicle: Klucel (hydroxypropylcellulose) (HPC)

With `CNc1nc(N(C)C)nc(N(C)C)n1` the T/C (endpoint: median tumor weight (est.), dose: 3.12 mg/kg/injection, schedule: Q07DX005 (ip), vehicle: saline) was 89 % of control, the T/C [1] was 111 % of control and the T/C [2] was 75 % of control. For the same molecule, the T/C (endpoint: median tumor weight (est.), dose: 12.5 mg/kg/injection, schedule: Q07DX005 (ip), vehicle: water) was 65 % of control, the T/C [3] was 108 % of control and the T/C (endpoint: median tumor weight (est.), dose: 25.0 mg/kg/injection, schedule: Q07DX005 (ip), vehicle: water) was 94 % of control. The T/C (endpoint: median tumor weight (est.), dose: 50.0 mg/kg/injection, schedule: Q07DX005 (ip), vehicle: saline) was 63 % of control, the T/C (endpoint: median tumor weight (est.), dose: 50.0 mg/kg/injection, schedule: Q07DX005 (ip), vehicle: water) was 13 % of control and the T/C (endpoint: median tumor weight (est.), dose: 74.0 mg/kg/injection, schedule: Q07DX005 (ip), vehicle: other) was 33 % of control. For the same molecule, the T/C (endpoint: median tumor weight (est.), dose: 100.0 mg/kg/injection, schedule: Q07DX005 (ip), vehicle: saline) was 48 % of control, the T/C (endpoint: median tumor weight (est.), dose: 100.0 mg/kg/injection, schedule: Q07DX005 (ip), vehicle: water) was 28 % of control and the T/C (endpoint: median tumor weight (est.), dose: 148.0 mg/kg/injection, schedule: Q07DX005 (ip), vehicle: other) was 47 % of control. For the same molecule, the T/C (endpoint: median tumor weight (est.), dose: 222.0 mg/kg/injection, schedule: Q07DX005 (ip), vehicle: other) was 7 % of control.

With `Cc1cc(NCCCN(C)C)c2ccc3c(ccc4c(NCCCN(C)C)cc(C)nc43)c2n1` the T/C (endpoint: median tumor weight change, dose: 3.9 mg/kg/injection, schedule: Q01DX001 (ip), vehicle: saline) was 87 % of control and the T/C (endpoint: median tumor weight change, dose: 7.81 mg/kg/injection, schedule: Q01DX001 (ip), vehicle: saline) was 98 % of control.

For `O=C(/C=C(\Cl)C(=O)NO)NO`, the T/C (endpoint: median tumor weight change, dose: 62.5 mg/kg/injection, schedule: Q01DX001 (ip), vehicle: suspension in saline) was 111 % of control, the T/C (endpoint: median tumor weight change, dose: 125.0 mg/kg/injection, schedule: Q01DX001 (ip), vehicle: suspension in saline) was 79 % of control and the T/C (endpoint: median tumor weight change, dose: 250.0 mg/kg/injection, schedule: Q01DX001 (ip), vehicle: suspension in saline) was 83 % of control.

For `Oc1c(Cl)cc(C(c2cc(Cl)c(O)c(Cl)c2)C(c2cc(Cl)c(O)c(Cl)c2)c2cc(Cl)c(O)c(Cl)c2)cc1Cl`, the T/C [4] was 540 % of control, the T/C [5] was 341 % of control and the T/C [6] was 294 % of control. For the same molecule, the T/C [7] was 84 % of control and the T/C [8] was 192 % of control.

With `O=Cc1ccc(O)c(O)c1` the T/C (endpoint: median tumor weight (est.), dose: 100.0 mg/kg/injection, schedule: Q07DX005 (ip), vehicle: suspension in saline) was 160 % of control.

For `CCC[P+](c1ccccc1)(c1ccccc1)c1ccccc1`, the T/C (endpoint: mean tumor weight, dose: 3.12 mg/kg/injection, schedule: Q07DX006 (ip), vehicle: saline with Tween-80) was 211 % of control, the T/C (endpoint: mean tumor weight, dose: 6.25 mg/kg/injection, schedule: Q07DX006 (ip), vehicle: saline with Tween-80) was 241 % of control and the T/C (endpoint: mean tumor weight, dose: 12.5 mg/kg/injection, schedule: Q07DX006 (ip), vehicle: saline with Tween-80) was 40 % of control. For the same molecule, the T/C (endpoint: mean tumor weight, dose: 25.0 mg/kg/injection, schedule: Q07DX006 (ip), vehicle: saline with Tween-80) was 72 % of control, the T/C (endpoint: mean tumor weight, dose: 50.0 mg/kg/injection, schedule: Q07DX006 (ip), vehicle: saline with Tween-80) was 38 % of control and the T/C (endpoint: median tumor weight (est.), dose: 3.12 mg/kg/injection, schedule: Q07DX005 (ip), vehicle: saline with Tween-80) was 83 % of control. The T/C (endpoint: median tumor weight (est.), dose: 6.25 mg/kg/injection, schedule: Q07DX004 (ip), vehicle: saline with Tween-80) was 112 % of control, the T/C (endpoint: median tumor weight (est.), dose: 6.25 mg/kg/injection, schedule: Q07DX005 (ip), vehicle: saline with Tween-80) was 72 % of control and the T/C (endpoint: median tumor weight (est.), dose: 12.5 mg/kg/injection, schedule: Q07DX004 (ip), vehicle: saline with Tween-80) was 172 % of control. For the same molecule, the T/C (endpoint: median tumor weight (est.), dose: 12.5 mg/kg/injection, schedule: Q07DX005 (ip), vehicle: saline with Tween-80) was 73 % of control, the T/C (endpoint: median tumor weight (est.), dose: 25.0 mg/kg/injection, schedule: Q07DX004 (ip), vehicle: saline with Tween-80) was 183 % of control and the T/C (endpoint: median tumor weight (est.), dose: 25.0 mg/kg/injection, schedule: Q07DX005 (ip), vehicle: saline with Tween-80) was 34 % of control. For the same molecule, the T/C (endpoint: median tumor weight (est.), dose: 50.0 mg/kg/injection, schedule: Q07DX004 (ip), vehicle: saline with Tween-80) was 104 % of control and the T/C (endpoint: median tumor weight (est.), dose: 50.0 mg/kg/injection, schedule: Q07DX005 (ip), vehicle: saline with Tween-80) was 30 % of control.

For `CC[C@](O)(C(=O)O)c1cc2n(c(=O)c1CO)Cc1cc3ccccc3nc1-2`, the T/C (endpoint: mean tumor weight (est.), dose: 20.0 mg/kg/injection, schedule: Q07DX004 (ip), vehicle: saline) was 70 % of control, the T/C (endpoint: mean tumor weight (est.), dose: 40.0 mg/kg/injection, schedule: Q07DX004 (ip), vehicle: saline) was 61 % of control and the T/C (endpoint: mean tumor weight (est.), dose: 60.0 mg/kg/injection, schedule: Q07DX004 (ip), vehicle: saline) was 48 % of control. For the same molecule, the T/C (endpoint: mean tumor weight, dose: 2.5 mg/kg/injection, schedule: Q01DX009 (ip), vehicle: saline) was 55 % of control, the T/C (endpoint: mean tumor weight, dose: 10.0 mg/kg/injection, schedule: Q07DX006 (ip), vehicle: saline) was 13 % of control and the T/C (endpoint: mean tumor weight, dose: 20.0 mg/kg/injection, schedule: Q07DX006 (ip), vehicle: saline) was 36 % of control and 42 % of control. The T/C (endpoint: mean tumor weight, dose: 20.0 mg/kg/injection, schedule: Q07DX007 (ip), vehicle: saline) was 102 % of control, the T/C (endpoint: mean tumor weight, dose: 40.0 mg/kg/injection, schedule: Q07DX006 (ip), vehicle: saline) was 23 % of control and the T/C (endpoint: mean tumor weight, dose: 40.0 mg/kg/injection, schedule: Q07DX007 (ip), vehicle: saline) was 71 % of control. For the same molecule, the T/C (endpoint: mean tumor weight, dose: 60.0 mg/kg/injection, schedule: Q07DX006 (ip), vehicle: saline) was 2 % of control, the T/C (endpoint: mean tumor weight, dose: 80.0 mg/kg/injection, schedule: Q07DX007 (ip), vehicle: saline) was 49 % of control and the T/C [1] was 58 % of control. The T/C [2] was 59 % of control and the T/C [3] was 41 % of control.

For `CC1C=NNC1=O` (stereo not drawn), the T/C [5] was 20 % of control, the T/C [6] was 187 % of control and the T/C [7] was 234 % of control. The T/C [8] was 182 % of control and the T/C (endpoint: median tumor weight (est.), dose: 400.0 mg/kg/injection, schedule: Q07DX005 (ip), vehicle: Klucel (hydroxypropylcellulose) (HPC)) was 23 % of control.

In the case of `Cc1[nH]c(=O)[nH]c(=O)c1N(CCF)CCCl`, the T/C [9] is reported as 113 % of control, the T/C [10] is reported as 97 % of control and the T/C [11] is reported as 79 % of control. The T/C [12] was 63 % of control and the T/C (endpoint: median tumor weight change, dose: 100.0 mg/kg/injection, schedule: Q01DX001 (ip), vehicle: Klucel (hydroxypropylcellulose) (HPC)) was 68 % of control.

With `C=CC(C)(C)n1cc(C2=C(O)C(=O)C(c3cn(C(C)(C)C=C)c4ccccc34)=C(O)C2=O)c2ccccc21` the T/C [9] was 122 % of control, the T/C [10] was 74 % of control and the T/C [11] was 91 % of control. For the same molecule, the T/C [12] was 157 % of control, the T/C (endpoint: median tumor weight (est.), dose: 40.0 mg/kg/injection, schedule: Q07DX005 (ip), vehicle: Klucel (hydroxypropylcellulose) (HPC)) was 168 % of control and the T/C (endpoint: median tumor weight change, dose: 1.25 mg/kg/injection, schedule: Q01DX001 (ip), vehicle: DMSO) was 64 % of control. The T/C (endpoint: median tumor weight change, dose: 2.5 mg/kg/injection, schedule: Q01DX001 (ip), vehicle: DMSO) was 77 % of control, the T/C (endpoint: median tumor weight change, dose: 5.0 mg/kg/injection, schedule: Q01DX001 (ip), vehicle: DMSO) was 86 % of control and the T/C (endpoint: median tumor weight change, dose: 10.0 mg/kg/injection, schedule: Q01DX001 (ip), vehicle: DMSO) was 110 % of control.

`CONc1ccn(C2OC(CO)C(O)C2O)c(=O)n1` (stereo not drawn) was tested, and the T/C (endpoint: median tumor weight change, dose: 125.0 mg/kg/injection, schedule: Q01DX001 (ip), vehicle: saline) was 87 % of control and the T/C (endpoint: median tumor weight change, dose: 250.0 mg/kg/injection, schedule: Q01DX001 (ip), vehicle: saline) was 103 % of control.

With `[I][Hg][CH2]C1OCCOC1[CH2][Hg][I]` (stereo not drawn) the T/C [4] was 96 % of control, the T/C [5] was 100 % of control and the T/C [6] was 85 % of control. For the same molecule, the T/C [7] was 76 % of control and the T/C [8] was 52 % of control.
